One data set has as its system HCV replicon. Description: HCV replicon assay (Clone A cells and ET-lunet cells, HCV RNA by real time PCR). In kind it is cell-based, hepatitis C virus. The conditions noted are these: Table 3, HCV 1b replicon. Here is the method: HCV replicon assay. HCV replicon assays using Clone A cells and ET-lunet cells were performed as described previously. L. J. Stuyver et al. Antimicrob. Agents Chemother. 2004, 48, 651-654. Briefly, Clone A cells and ET-lunet cells were seeded at a density of 1500 and 3000 cells per well in a 96-well plate, respectively. Test compounds serially diluted in culture medium without G418 were added to cells. Plates were incubated at 37° C. in a 5% CO2 atmosphere for 4 days. Inhibition of HCV RNA replication was determined by quantitative real time PCR. See, e.g., L. J. Stuyver et al. Antiviral Chem. Chemother. 2006, 17, 79-87.
To express the antiviral effectiveness of a compound, the threshold RT-PCR cycle of the test compound was subtracted from the average threshold RT-PCR cycle of the no-drug control (ΔCtHCV). A ΔCt of 3.3 equals a 1-log 10 reduction (equal to the 90% effective concentration [EC90]) in replicon RNA levels. The cytotoxicity of the test compound could also be expressed by calculating the ΔCtrRNA values. The ΔΔCt specificity parameter could then be introduced (ΔCtHCV-ΔCtrRNA), in which the levels of HCV RNA are normalized for the rRNA levels and calibrated against the no-drug control.
A general note: A replicon is a self-replicating genome or part of one, used to study replication in cells.

Data set [1] has as its system Huh7, HepG2, BxPC3, or CEM cells. The data set is described as follows: Cell cytotoxicity assay (MTS). Type of data set: cell-based. The conditions noted are these: Table 3; cell line not stated. Here is the method:
Cell cytotoxicity assays. Each compound (serially diluted from 100 μM) was added to Huh7 (2×10^3 cells/well), HepG2 (2×10^3 cells/well), BxPC3 (2×10^3 cells/well), or CEM (5×10^3 cells/well) cells and allowed to incubate for 8 days at 37° C. A medium only control was used to determine the minimum absorbance value […]. At the end of the growth period, MTS dye from the CellTiter 96 Aqueous One Solution Cell Proliferation Assay kit (Promega) was added to each well and the plate was incubated for an additional 2 hours. The absorbance at 490 nm was read with a Victor3 plate reader (Perkin Elmer) using the medium only control wells as blanks. The 50% inhibition value (CC50) was determined by comparing the absorbance in wells containing cells and test compound to untreated cell control wells.

In data set [2] the test system is Dengue 2 strain New Guinea C. Description: Dengue CPE assay. In kind it is cell-based, Dengue virus 2. The conditions noted are these: Table 6; BHK-21 cells, 3 days, 50% cells surviving; read-out: EC50, activity against dengue virus. As for the experimental part:
Dengue CPE Assay. To measure cytopathic effect of Dengue virus 2, BHK-21 ([…], CCL-10 ATCC Manassas, Va.) cells were seeded at a density of 20,000 cells/well in a 96-well black/clear bottom plates (Becton Dickinson, Franklin Lakes, N.J.) one day prior to start of the assay and allowed to attach overnight in EMEM (ATCC Manassas, Va.) +10% FBS (Invitrogen, Carlsbad, Calif.) at 37° C. in a humidified 5% CO2 atmosphere. The next day, the medium was removed and the cells were infected with Dengue 2 strain New Guinea C (VR-1584, ATCC Manassas, Va.) at an MOI of 0.08 pfu/cell for two hours in 50 μL EMEM+2% FBS. For both the single point and dose response assays, compounds (2× concentration) were diluted in EMEM+2% FBS and 50 μL was added to infected cells without removing virus. Cells were incubated for 3 days at 37° C. in a humidified 5% CO2 atmosphere. The medium was aspirated and 50 μL of CellTiter-Glo (Promega, Madison, Wis.) was added to each well and read for 0.1 seconds on a Perkin Elmer Victor3 (Waltham, Mass.) plate reader. Percent survival was determined by subtracting the average value of infected control wells and normalizing to the non-infected wells. The effective concentration was calculated from the dose response data by forecasting 50% cells surviving with drug treatment.

The nature of data set [3]: Cytotoxicity reported with the dengue assay. Type of data set: cell-based. Particulars: Table 6; cell line not stated.
For data set [4], the target named is wild type NS5B Genotype 1b (Hepatitis C virus genotype 1b (isolate Con1) (HCV), UniProt Q9WMX2). The data set is described as follows: HCV NS5B polymerase reaction, wild type. Particulars: Table 5, nucleoside triphosphates. Type of data set: biochemical.
The target in a further data set is S282T NS5B Genotype 1b (Hepatitis C virus genotype 1b (isolate Con1) (HCV), UniProt Q9WMX2, S2701T). The data set is described as follows: HCV NS5B polymerase reaction, S282T mutant. In kind it is biochemical. Particulars: Table 5, nucleoside triphosphates. Here is the method: The HCV NS5B reaction was performed in a 20 μL mixture containing varying concentrations of the test compound, 1 μM of all four natural ribonucleotides, [α-^32P]UTP, 20 ng/μL of genotype 1b (−) IRES RNA template, 1 unit/μL of SUPERase•In (Ambion, Austin, Tex.), 40 ng/μL of wild type or S282T NS5B Genotype 1b, 1 mM MgCl2, 0.75 mM MnCl2, and 2 mM DTT in 50 mM Hepes buffer (pH 7.5). The reaction was quenched by adding 80 μL of stop solution (12.5 mM EDTA, 2.25 M NaCl, and 225 mM sodium citrate) after incubating at 27° C. for 30 minutes. The radioactive RNA products were separated from unreacted substrates by passing the quenched reaction mixture through a Hybond N+ membrane (GE Healthcare, Piscataway, N.J.) using a dot-blot apparatus. The RNA products were retained on the membrane and the free nucleotides were washed out. The membrane was washed 4 times with a solution containing 0.6 M NaCl and 60 mM sodium citrate. After rinsing the membrane with water followed by ethanol, the membrane was exposed to a phosphorscreen and the products were visualized and quantified using a phosphorimager. The IC50 values were calculated using GraFit program version 5 (Erithacus Software, Horley, Surrey, UK). All the reactions were done in duplicate and the results were reported as IC50±standard error.

Structures are written as SMILES. A value given as a limit tells only on which side of the number the result lay.

Sequence of wild type NS5B Genotype 1b (Q9WMX2 2420-3010): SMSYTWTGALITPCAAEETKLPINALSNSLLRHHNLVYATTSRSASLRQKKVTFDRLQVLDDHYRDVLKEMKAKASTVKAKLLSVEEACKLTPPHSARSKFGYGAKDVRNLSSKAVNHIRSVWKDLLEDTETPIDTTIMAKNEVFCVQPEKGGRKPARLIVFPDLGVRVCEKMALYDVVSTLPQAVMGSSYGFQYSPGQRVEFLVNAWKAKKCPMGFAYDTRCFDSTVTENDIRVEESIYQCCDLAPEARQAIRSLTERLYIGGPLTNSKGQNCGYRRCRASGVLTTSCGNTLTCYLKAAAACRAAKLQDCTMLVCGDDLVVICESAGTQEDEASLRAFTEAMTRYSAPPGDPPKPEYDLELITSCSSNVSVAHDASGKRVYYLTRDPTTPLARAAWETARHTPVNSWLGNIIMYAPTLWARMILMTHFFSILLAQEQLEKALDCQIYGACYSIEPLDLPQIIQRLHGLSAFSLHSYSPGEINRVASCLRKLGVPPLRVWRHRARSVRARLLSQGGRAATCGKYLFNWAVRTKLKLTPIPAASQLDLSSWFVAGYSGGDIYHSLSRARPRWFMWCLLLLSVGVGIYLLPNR
Sequence of S282T NS5B Genotype 1b (Q9WMX2 2420-3010 S2701T): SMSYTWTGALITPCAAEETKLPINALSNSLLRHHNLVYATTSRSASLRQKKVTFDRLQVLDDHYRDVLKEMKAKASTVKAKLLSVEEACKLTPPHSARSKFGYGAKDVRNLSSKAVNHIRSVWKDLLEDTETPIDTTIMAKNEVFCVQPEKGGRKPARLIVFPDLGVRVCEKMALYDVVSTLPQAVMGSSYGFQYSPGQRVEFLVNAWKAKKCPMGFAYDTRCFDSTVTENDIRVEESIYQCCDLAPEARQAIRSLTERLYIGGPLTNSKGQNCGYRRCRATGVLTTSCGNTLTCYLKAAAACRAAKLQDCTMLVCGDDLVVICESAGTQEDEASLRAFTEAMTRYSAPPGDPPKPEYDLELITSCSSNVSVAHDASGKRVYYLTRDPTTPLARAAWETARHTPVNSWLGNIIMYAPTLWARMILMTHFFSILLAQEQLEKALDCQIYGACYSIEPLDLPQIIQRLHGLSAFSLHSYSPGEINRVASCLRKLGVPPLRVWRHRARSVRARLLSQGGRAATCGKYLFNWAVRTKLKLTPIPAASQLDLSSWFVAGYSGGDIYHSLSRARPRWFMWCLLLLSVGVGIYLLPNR

Usually EC50 stands for the concentration at which the effect is half-maximal. What is called EC90 is the point of the concentration-response curve where the effect stands at 90%. A word on the CC50: it is the concentration giving 50% cytotoxicity. As for `COc1nc(N)nc2c1ncn2C1OC(COP(=O)(N[C@@H](C)C(=O)OCc2ccccc2)Oc2ccccc2)[C@@H](O)[C@]12CCO2` (some centres unmarked) [compound 131], the EC50 in the data set with HCV replicon (read-out: EC50, anti-HCV 1b activity) is 11.7 µM; in data set [2], 1.49 µM. In addition, the EC90 in the data set on HCV replicon (read-out: EC90, anti-HCV 1b activity) is over 20 µM. For the same molecule, the CC50 in data set [1] and in data set [3] was over 20 µM throughout.

For orientation: IC50 means the point on the concentration scale where inhibition reaches its midpoint. A higher IC50 goes with weaker potency. Take `O=c1ccn(C2OC(CO)[C@@H](O)[C@@]23CCCO3)c(=O)[nH]1` (some centres unmarked) [compound 135]: the IC50 in data set [4] was over 100 µM.

For `O=c1ccn(C2OC(CO)[C@@H](O)[C@]23CCO3)c(=O)[nH]1` (some centres unmarked) [compound 136], the IC50 in data set [4] was 39.4 µM; against S282T NS5B Genotype 1b, over 100 µM.

`Nc1ccn(C2OC(CO)[C@@H](O)[C@]23CCCO3)c(=O)n1` (some centres unmarked) [compound 137]: the IC50 in data set [4] is over 45.3 µM; at S282T NS5B Genotype 1b it was over 100 µM.

With `Nc1ccn(C2OC(CO)[C@@H](O)[C@@]23CCCO3)c(=O)n1` (some centres unmarked) [compound 138], the IC50 in data set [4] was over 100 µM.

The molecule `Nc1ccn(C2OC(CO)[C@@H](O)[C@@]23CCO3)c(=O)n1` (some centres unmarked) [compound 139] yielded an IC50 in data set [4] of over 100 µM.

With `Nc1ccn(C2OC(CO)[C@@H](O)[C@]23CCO3)c(=O)n1` (some centres unmarked) [compound 140], the IC50 in data set [4] was over 8.48 µM; against S282T NS5B Genotype 1b it was 56.7 µM.

The values are drawn from US9394331B2, “2′-spiro-nucleosides and derivatives thereof useful for treating hepatitis C virus and dengue virus infections” (priority 2010, dated 2016).
